pEC50: −log10 of the molar value. Counter-ions that a name gives are not always drawn.
What was measured:
human S1P1 receptor = molecular target: T1, human S1P1 receptor (Homo sapiens, UniProt P21453); experiment: S1P1 GTPγS Assay; assay type: biochemical; conditions: human S1P1 rat hepatoma membranes, agonist
T1 construct: expressed in transfected cells; membranes
Protocol: Membrane Preparation for S1P1 GTPγS Assay
For membrane preparations all steps were performed at 4° C. Rat hepatoma cells stably expressing the human S1P1 receptor or Rat Basophilic Leukaemia cells (RBL) stably expressing human S1P3 receptor were grown to 80% confluency before being harvested into 10 ml Phospho-Buffered Saline (PBS) and centrifuged at 1200 rpm for 5 minutes. After removal of the supernatant, the pellet was re-suspended and cells were homogenised within a glass Waring blender for 2 bursts of 15 secs in 200 mls of buffer (50 mM HEPES, 1 mM leupeptin, 25 μg/ml bacitracin, 1 mM EDTA, 1 mM PMSF, 2 μM pepstatin A). The blender was plunged into ice for 5 mins after the first burst and 10-40 mins after the final burst to allow foam to dissipate. […]
After 30 minutes pre-coupling on ice the bead and membrane suspension was dispensed into a white Greiner polypropylene LV384-well plate (5 μl/well), containing 0.1 μl of the compound. […] The final assay cocktail (10.1 μl) was then centrifuged at 1000 rpm for 5 minutes then read immediately on a Viewlux reader. […]
(§1) After 30 minutes precoupling on ice, the bead and membrane suspension was dispensed into white Greiner polypropylene LV 384-well plates (5 μl/well), containing 0.1 μl of compound. […] The final assay cocktail (10.1 μl) was then sealed, spun on a centrifuge, then read immediately on a Viewlux instrument.

human S1P3 receptor = molecular target: T2, human S1P3 receptor (Homo sapiens, UniProt Q99500); experiment: S1P3 GTPγS Assay; assay type: biochemical; conditions: S1P3 RBL-2H3 membranes, agonist
T2 construct: expressed in transfected cells; membranes
Protocol: For membrane preparations all steps were performed at 4° C. Rat hepatoma cells stably expressing the human S1P1 receptor or Rat Basophilic Leukaemia cells (RBL) stably expressing human S1P3 receptor were grown to 80% confluency before being harvested into 10 ml Phospho-Buffered Saline (PBS) and centrifuged at 1200 rpm for 5 minutes. After removal of the supernatant, the pellet was re-suspended and cells were homogenised within a glass Waring blender for 2 bursts of 15 secs in 200 mls of buffer (50 mM HEPES, 1 mM leupeptin, 25 μg/ml bacitracin, 1 mM EDTA, 1 mM PMSF, 2 μM pepstatin A). The blender was plunged into ice for 5 mins after the first burst and 10-40 mins after the final burst to allow foam to dissipate. The material was then spun at 500 g for 20 mins and the supernatant spun for 36 mins at 48,000 g. The pellet was resuspended in the same buffer as above but without PMSF and pepstatin A. The material was then forced through a 0.6 mm needle, made up to the required volume, (usually ×4 the volume of the original cell pellet), aliquoted and stored frozen at −80° C.
S1P3 membranes from rat basophilic leukaemia cells (RBL-2H3) (1.5 μg/well) were adhered to WGA-coated SPA beads (0.125 mg/well) in assay buffer (HEPES 20 mM, MgCl2 3 mM, NaCl 100 mM and pH adjusted to 7.4 using KOH 5M), GDP 10 μM FAC and saponin 90 μg/ml FAC was also added).
After 30 minutes pre-coupling on ice the bead and membrane suspension was dispensed into a white Greiner polypropylene LV384-well plate (5 μl/well), containing 0.1 μl of the compound. 5 μl/well [^35S]-GTPγS (0.5 nM final radioligand conc) made up in assay buffer was then added to agonist plates. The final assay cocktail (10.1 μl) was centrifuged at 1000 rpm for 5 minutes then read immediately on a Viewlux reader. […]
as §1

T2 sequence (Q99500 whole entry): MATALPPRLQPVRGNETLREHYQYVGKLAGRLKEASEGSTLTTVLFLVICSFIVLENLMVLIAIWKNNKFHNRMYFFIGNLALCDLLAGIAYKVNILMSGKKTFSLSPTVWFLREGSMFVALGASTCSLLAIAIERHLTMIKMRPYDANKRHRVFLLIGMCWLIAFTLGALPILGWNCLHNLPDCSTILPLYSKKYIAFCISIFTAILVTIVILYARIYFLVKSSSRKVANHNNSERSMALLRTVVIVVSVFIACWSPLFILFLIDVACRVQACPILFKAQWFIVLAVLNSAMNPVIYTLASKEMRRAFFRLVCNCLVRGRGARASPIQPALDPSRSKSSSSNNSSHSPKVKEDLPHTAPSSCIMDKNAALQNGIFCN
T1 sequence (P21453 whole entry): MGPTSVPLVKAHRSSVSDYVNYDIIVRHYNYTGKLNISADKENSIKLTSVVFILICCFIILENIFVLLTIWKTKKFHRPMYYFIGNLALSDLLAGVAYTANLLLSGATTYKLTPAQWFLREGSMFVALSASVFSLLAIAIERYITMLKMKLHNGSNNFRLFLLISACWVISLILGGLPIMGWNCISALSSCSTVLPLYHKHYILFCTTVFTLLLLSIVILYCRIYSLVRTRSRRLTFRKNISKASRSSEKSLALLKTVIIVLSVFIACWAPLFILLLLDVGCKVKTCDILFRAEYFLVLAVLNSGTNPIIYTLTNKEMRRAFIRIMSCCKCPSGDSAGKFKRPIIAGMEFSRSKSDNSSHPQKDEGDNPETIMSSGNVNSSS

For CC(C)Oc1ccc(-c2nc(-c3cccc4c3CNC4)no2)cc1C#N [Example 1, 5-[3-(2,3-Dihydro-1H-isoindol-4-yl)-1,2,4-oxadiazol-5-yl]-2-[(1-methylethyl)oxy]benzonitrile hydrochloride], the pEC50 (human S1P1 receptor) was greater than 8.00 and the pEC50 (human S1P3 receptor) was less than 5.00.
With CC(C)Oc1ccc(-c2nc(-c3cccc4c3CNC4)no2)cc1Cl [Example 2, 4-(5-{3-Chloro-4-[(1-methylethyl)oxy]phenyl}-1,2,4-oxadiazol-3-yl)-2,3-dihydro-1H-isoindole] the pEC50 (human S1P1 receptor) was greater than 8.00 and the pEC50 (human S1P3 receptor) was less than 5.00.
CC(C)Oc1ccc(-c2nc(-c3cccc4c3CN(CCCC(=O)O)C4)no2)cc1C#N [Example 5, 4-[4-(5-{3-cyano-4-[(1-methylethyl)oxy]phenyl}-1,2,4-oxadiazol-3-yl)-1,3-dihydro-2H-isoindol-2-yl]butanoic acid] gave a pEC50 (human S1P3 receptor) of less than 5.00.

From US20100261767A1, “OXADIAZOLE DERIVATIVES FOR USE AS S1P1 AGONISTS IN THE TREATMENT OF AUTOIMMUNE AND INFLAMMATORY DISORDERS” (priority 2007, published 2010)
